According to patent US20170081300A1, “SYDNONE DERIVATIVES FOR CONJUGATION OF COMPOUNDS OF INTEREST” (UNIVERSITE DE STRASBOURG, priority 2014, published 2017):

Experiments:
Format in all cases: physicochemical
[1] = Kinetic study of the coupling reaction of sydnones with cyclic alkyne BCN in PBS/DMSO (HPLC); conditions: for K (BCN), second order kinetic constant: PBS/DMSO (9:1), 100 μM sydnone, 150 μM BCN
Procedure: (§1) The kinetics of the coupling reaction of different sydnones with two cyclic alkynes was studied, according to the following scheme.
(§2) Reactions of sydnones with BCN (or TMTH) were carried out in PBS/DMSO (9:1) mixtures at 100 μM concentration of sydnones and 150 μM concentration of BCN using the following procedure:
(§3) To 900 μL of phosphate buffered saline (PBS, 100 mM) was added 87.5 μL of DMSO, 10 μL of the solution of benzamide (internal standard, 100 mM in DMSO), 1 μL of the solution of sydnone (100 mM in DMSO) and 1.5 μL of the solution of BCN (100 mM in DMSO). The reaction mixture was injected in HPLC every 30 min and the conversion was followed by measuring the normalized sydnone peak area.
(§4) Second order reaction rate was determined by plotting ln([A]/[B])/([A]−[B]) versus time and analyzing by linear regression. Second order rate constant corresponds to the determined slope.

[2] = Kinetic study of the coupling reaction of sydnones with cyclic alkyne TMTH in PBS/DMSO (HPLC); conditions: PBS/DMSO (9:1), 100 μM sydnone
Procedure: as §1, §2, §3, §4

[3] = HPLC monitoring of the cycloaddition reaction with BCN in blood plasma; conditions: 100 μM sydnone, 150 μM BCN, after 1 hour
Procedure: Reactions of sydnone S1-2 with bicyclononyne BCN was carried out in blood plasma at 100 μM concentration of sydnone and 150 μM concentration of cyclooctyne BCN using the following procedure:
as §3, with “blood plasma were” for “phosphate buffered saline (PBS, 100 mM) was”, “added” for “added 87.5 μL of DMSO,”

SMILES | K (BCN), second order kinetic constant [1] [M⁻¹ s⁻¹] | K (TMTH), second order kinetic constant [2] [M⁻¹ s⁻¹] | ratio of K constant (BCN) to K constant of the corresponding sydnone not substituted in position 4 ([1]; K(S1-1)/K(S0-3), K(S1-2)/K(S0-4)) | conversion of sydnone in reaction with BCN [3]
O=C(O)c1ccc(-[n+]2cc([O-])on2)cc1 [Sydnone S0-4, 3-(4-carboxyphenyl)-1,2,3λ^5-oxadiazol-3-ylium-5-olate, reference compound] | 0.059 ± 0.001 |  |  | 
O=C(O)c1ccc(-[n+]2noc([O-])c2Cl)cc1 [Sydnone S1-2, 3-(4-carboxyphenyl)-4-chloro-1,2,3λ^5-oxadiazol-3-ylium-5-olate] | 1.593 ± 0.034 | 322 | 27 | almost complete reaction
O=C(O)c1ccc(-[n+]2noc([O-])c2Br)cc1 [Sydnone S2-2, 4-bromo-3-(4-carboxyphenyl)-1,2,3λ^5-oxadiazol-3-ylium-5-olate] | 0.798 ± 0.065 | 101 |  | 
